Measured values reported in PubChem BioAssay AID2060625 (Molecular Pharmacology Branch, DTP, NCI, 2025).

Tested on: 186277-243-T-J2-PDC spheroids with HUVEC/MSC, viability
Experiment: Anticancer human tumor 186277-243-T-J2-PDC patient-derived colon adenocarcinoma cell line growth inhibition [CLK]
Settings: curve of first compound; second compound 0.0316 µM
Outline: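 Multi-cell-type spheroids combined patient-derived tumor cells with HUVEC endothelial cells and human mesenchymal stem cells. Paired agents were dosed in half-log steps down from about clinical Cmax, or from 10 microM where Cmax was unknown.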
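Note: compound exposure lasted seven days before readout.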

First: COc1c(OCCCN2CCOCC2)ccc2c3n(c(=NC(=O)c4cnc(N)nc4)nc12)CCN3 + CNC(=O)c1ccc(Nc2nc(OC3CCCC3)c3c(-c4ccc5nc(C)oc5c4)c[nH]c3n2)c(OC)c1
Second: C=C(F)C(=O)N1CCN(c2nc(OCC3CCCN3C)nc3c2CCN(c2cccc4cccc(Cl)c24)C3)CC1CC#N (stereo unspecified) + CN1CCN(c2cc(C(=O)Nc3cc4cc(-c5cnn(C)c5)ccc4cn3)ccn2)CC1
The IC50 of the first is 220-fold lower: 29.9 nM for the first, 6630 nM for the second. The first is the more potent here.

Going from O=C(c1cc(Cc2n[nH]c(=O)c3ccccc23)ccc1F)N1CCN(C(=O)C2CC2)CC1 + CNC(=O)c1ccc(Nc2nc(OC3CCCC3)c3c(-c4ccc5nc(C)oc5c4)c[nH]c3n2)c(OC)c1 to C#Cc1c(F)ccc2cc(O)cc(-c3ncc4c(N5CC6CCC(C5)N6)nc(OCC56CCCN5CC(F)C6)nc4c3F)c12 (stereo unspecified) + CNC(=O)c1ccc(Nc2nc(OC3CCCC3)c3c(-c4ccc5nc(C)oc5c4)c[nH]c3n2)c(OC)c1, the IC50 falls from > 10000 nM to 244 nM. The second is the more potent here.

COC1C=CCC(C)C(C)S(=O)(=O)NC(=O)c2ccc3c(c2)N(CC2CCC21)CC1(CCCc2cc(Cl)ccc21)CO3 (stereo unspecified) + CN1CCN(c2cc(C(=O)Nc3cc4cc(-c5cnn(C)c5)ccc4cn3)ccn2)CC1 was tested, and the IC50 was 4120 nM.

Same assay, conditions: curve of first compound; second compound 0.1 µM

Going from COc1c(OCCCN2CCOCC2)ccc2c3n(c(=NC(=O)c4cnc(N)nc4)nc12)CCN3 + CNC(=O)c1ccc(Nc2nc(OC3CCCC3)c3c(-c4ccc5nc(C)oc5c4)c[nH]c3n2)c(OC)c1 to C=C(F)C(=O)N1CCN(c2nc(OCC3CCCN3C)nc3c2CCN(c2cccc4cccc(Cl)c24)C3)CC1CC#N (stereo unspecified) + CN1CCN(c2cc(C(=O)Nc3cc4cc(-c5cnn(C)c5)ccc4cn3)ccn2)CC1, the IC50 rises from < 3.16 nM to 5050 nM.

First: O=C(c1cc(Cc2n[nH]c(=O)c3ccccc23)ccc1F)N1CCN(C(=O)C2CC2)CC1 + CNC(=O)c1ccc(Nc2nc(OC3CCCC3)c3c(-c4ccc5nc(C)oc5c4)c[nH]c3n2)c(OC)c1
Second: C#Cc1c(F)ccc2cc(O)cc(-c3ncc4c(N5CC6CCC(C5)N6)nc(OCC56CCCN5CC(F)C6)nc4c3F)c12 (stereo unspecified) + CNC(=O)c1ccc(Nc2nc(OC3CCCC3)c3c(-c4ccc5nc(C)oc5c4)c[nH]c3n2)c(OC)c1
The IC50 of the first is higher: > 10000 nM for the first, < 31.6 nM for the second.

COC1C=CCC(C)C(C)S(=O)(=O)NC(=O)c2ccc3c(c2)N(CC2CCC21)CC1(CCCc2cc(Cl)ccc21)CO3 (stereo unspecified) + CN1CCN(c2cc(C(=O)Nc3cc4cc(-c5cnn(C)c5)ccc4cn3)ccn2)CC1 gave an IC50 of 1120 nM.

Same assay, conditions: curve of first compound; second compound 0.316 µM

COc1c(OCCCN2CCOCC2)ccc2c3n(c(=NC(=O)c4cnc(N)nc4)nc12)CCN3 + CNC(=O)c1ccc(Nc2nc(OC3CCCC3)c3c(-c4ccc5nc(C)oc5c4)c[nH]c3n2)c(OC)c1 and C=C(F)C(=O)N1CCN(c2nc(OCC3CCCN3C)nc3c2CCN(c2cccc4cccc(Cl)c24)C3)CC1CC#N (stereo unspecified) + CN1CCN(c2cc(C(=O)Nc3cc4cc(-c5cnn(C)c5)ccc4cn3)ccn2)CC1 cannot be ordered by IC50: < 3.16 nM for the first, < 31.6 nM for the second.

First: O=C(c1cc(Cc2n[nH]c(=O)c3ccccc23)ccc1F)N1CCN(C(=O)C2CC2)CC1 + CNC(=O)c1ccc(Nc2nc(OC3CCCC3)c3c(-c4ccc5nc(C)oc5c4)c[nH]c3n2)c(OC)c1
Second: C#Cc1c(F)ccc2cc(O)cc(-c3ncc4c(N5CC6CCC(C5)N6)nc(OCC56CCCN5CC(F)C6)nc4c3F)c12 (stereo unspecified) + CNC(=O)c1ccc(Nc2nc(OC3CCCC3)c3c(-c4ccc5nc(C)oc5c4)c[nH]c3n2)c(OC)c1
The IC50 of the first is higher: > 10000 nM for the first, < 31.6 nM for the second. The second is the more potent here.

In the case of COC1C=CCC(C)C(C)S(=O)(=O)NC(=O)c2ccc3c(c2)N(CC2CCC21)CC1(CCCc2cc(Cl)ccc21)CO3 (stereo unspecified) + CN1CCN(c2cc(C(=O)Nc3cc4cc(-c5cnn(C)c5)ccc4cn3)ccn2)CC1, the IC50 is reported as < 31.6 nM.

Same assay, conditions: curve of first compound; second compound 1 µM

COc1c(OCCCN2CCOCC2)ccc2c3n(c(=NC(=O)c4cnc(N)nc4)nc12)CCN3 + CNC(=O)c1ccc(Nc2nc(OC3CCCC3)c3c(-c4ccc5nc(C)oc5c4)c[nH]c3n2)c(OC)c1 and C=C(F)C(=O)N1CCN(c2nc(OCC3CCCN3C)nc3c2CCN(c2cccc4cccc(Cl)c24)C3)CC1CC#N (stereo unspecified) + CN1CCN(c2cc(C(=O)Nc3cc4cc(-c5cnn(C)c5)ccc4cn3)ccn2)CC1 cannot be ordered by IC50: < 3.16 nM for the first, < 31.6 nM for the second.

O=C(c1cc(Cc2n[nH]c(=O)c3ccccc23)ccc1F)N1CCN(C(=O)C2CC2)CC1 + CNC(=O)c1ccc(Nc2nc(OC3CCCC3)c3c(-c4ccc5nc(C)oc5c4)c[nH]c3n2)c(OC)c1 and C#Cc1c(F)ccc2cc(O)cc(-c3ncc4c(N5CC6CCC(C5)N6)nc(OCC56CCCN5CC(F)C6)nc4c3F)c12 (stereo unspecified) + CNC(=O)c1ccc(Nc2nc(OC3CCCC3)c3c(-c4ccc5nc(C)oc5c4)c[nH]c3n2)c(OC)c1 cannot be ordered by IC50: < 31.6 nM for the first, < 31.6 nM for the second.

In the case of COC1C=CCC(C)C(C)S(=O)(=O)NC(=O)c2ccc3c(c2)N(CC2CCC21)CC1(CCCc2cc(Cl)ccc21)CO3 (stereo unspecified) + CN1CCN(c2cc(C(=O)Nc3cc4cc(-c5cnn(C)c5)ccc4cn3)ccn2)CC1, the IC50 is reported as < 31.6 nM.

Same assay, conditions: curve of first compound; second compound 3.16 µM

COc1c(OCCCN2CCOCC2)ccc2c3n(c(=NC(=O)c4cnc(N)nc4)nc12)CCN3 + CNC(=O)c1ccc(Nc2nc(OC3CCCC3)c3c(-c4ccc5nc(C)oc5c4)c[nH]c3n2)c(OC)c1 and C=C(F)C(=O)N1CCN(c2nc(OCC3CCCN3C)nc3c2CCN(c2cccc4cccc(Cl)c24)C3)CC1CC#N (stereo unspecified) + CN1CCN(c2cc(C(=O)Nc3cc4cc(-c5cnn(C)c5)ccc4cn3)ccn2)CC1 cannot be ordered by IC50: < 3.16 nM for the first, < 31.6 nM for the second.

O=C(c1cc(Cc2n[nH]c(=O)c3ccccc23)ccc1F)N1CCN(C(=O)C2CC2)CC1 + CNC(=O)c1ccc(Nc2nc(OC3CCCC3)c3c(-c4ccc5nc(C)oc5c4)c[nH]c3n2)c(OC)c1 and C#Cc1c(F)ccc2cc(O)cc(-c3ncc4c(N5CC6CCC(C5)N6)nc(OCC56CCCN5CC(F)C6)nc4c3F)c12 (stereo unspecified) + CNC(=O)c1ccc(Nc2nc(OC3CCCC3)c3c(-c4ccc5nc(C)oc5c4)c[nH]c3n2)c(OC)c1 cannot be ordered by IC50: < 31.6 nM for the first, < 31.6 nM for the second.

With COC1C=CCC(C)C(C)S(=O)(=O)NC(=O)c2ccc3c(c2)N(CC2CCC21)CC1(CCCc2cc(Cl)ccc21)CO3 (stereo unspecified) + CN1CCN(c2cc(C(=O)Nc3cc4cc(-c5cnn(C)c5)ccc4cn3)ccn2)CC1 the IC50 was < 31.6 nM.

Same assay, conditions: curve of first compound; second compound 10 µM

COc1c(OCCCN2CCOCC2)ccc2c3n(c(=NC(=O)c4cnc(N)nc4)nc12)CCN3 + CNC(=O)c1ccc(Nc2nc(OC3CCCC3)c3c(-c4ccc5nc(C)oc5c4)c[nH]c3n2)c(OC)c1 was tested, and the IC50 was < 3.16 nM.
